Values belong to the compound of their own block, whether it stands above or below them.
Key:
cGMP PDE5 = cGMP PDE5 (UniProt O76074); experiment: Phosphodiesterase (PDE) inhibitory activity: in vitro inhibition of cGMP PDE5 (batch method or scintillation proximity assay); conditions: in vitro activity as inhibitors of cGMP PDE5
Procedure: Phosphodiesterases 7-11 were generated from full length human recombinant clones transfected into SF9 cells.
In summary, the effect of PDE inhibitors was investigated by assaying a fixed amount of enzyme in the presence of varying inhibitor concentrations and low substrate, (cGMP or cAMP in a 3:1 ratio unlabelled to [^3H]-labeled at a conc ˜1/3 Km) such that IC50≅Ki. The final assay volume was made up to 100 μl with assay buffer [20 mM Tris-HCl pH 7.4, 5 mM MgCl2, 1 mg/ml bovine serum albumin].

- IC50 (cGMP PDE5): 5 nM
Compound: CCCOc1ncc(NCC(=O)O)cc1-c1nc2c(CCC)nn(C)c2c(=O)[nH]1 [Example 75, {[5-(1-Methyl-7-oxo-3-propyl-6,7-dihydro-1H-pyrazolo[4,3-d]pyrimidin-5-yl)-6-propoxy-3-pyridinyl]amino}acetic Acid]

- IC50 (cGMP PDE5): 0.9 nM
Compound: CCCOc1ncc(NS(C)(=O)=O)cc1-c1nc2c(CCC)nn(C)c2c(=O)[nH]1 [Example 77, N-[5-(1-Methyl-7-oxo-3-propyl-6,7-dihydro-1H-pyrazolo[4,3-d]pyrimidin-5-yl)-6-propoxy-3-pyridinyl]methanesulfonamide]

- IC50 (cGMP PDE5): 0.3 nM
Compound: CCCOc1ncc(NC(=O)CC(=O)OC)cc1-c1nc2c(CCC)nn(C)c2c(=O)[nH]1 [Example 78, Methyl 3-{[5-(1-methyl-7-oxo-3-propyl-6,7-dihydro-1H-pyrazolo[4,3-d]-pyrimidin-5-yl)-6-propoxy-3-pyridinyl]amino}-3-oxopropanoate]

- melting point: 261 to 262 °C
- IC50 (cGMP PDE5): 1.6 nM
Compound: CCCOc1ncc(NC(=O)CC(=O)O)cc1-c1nc2c(CCC)nn(C)c2c(=O)[nH]1 [Example 79, N-[5-(1-Methyl-7-oxo-3-propyl-6,7-dihydro-1H-pyrazolo[4,3-d]pyrimidin-5-yl)-6-propoxy-3-pyridinyl]-3-oxo-β-alanine]

- melting point: 175 °C
- IC50 (cGMP PDE5): 4 nM
Compound: CCCOc1ncc(NCC(=O)OC)cc1-c1nc2c(CCC)nn(C)c2c(=O)[nH]1 [Example 82, Methyl {[5-(1-Methyl-7-oxo-3-propyl-6,7-dihydro-1H-pyrazolo[4,3-d]pyrimidin-5-yl)-6-propoxy-3-pyridinyl]amino}acetate]

- melting point: 185 to 187 °C
- IC50 (cGMP PDE5): 2 nM
Compound: CCCOc1ncc(NC(C)C(=O)OC)cc1-c1nc2c(CCC)nn(C)c2c(=O)[nH]1 (centres unmarked) [Example 83, Methyl 2-{[5-(1-Methyl-7-oxo-3-propyl-6,7-dihydro-1H-pyrazolo[4,3-d]-pyrimidin-5-yl)-6-propoxy-3-pyridinyl]amino}propanoate]

- IC50 (cGMP PDE5): 7.5 nM
Compound: CCCOc1ncc(N[C@@H](C)C(=O)O)cc1-c1nc2c(CCC)nn(C)c2c(=O)[nH]1 [Example 84, N-[5-(1-Methyl-7-oxo-3-propyl-6,7-dihydro-1H-pyrazolo[4,3-d]pyrimidin-5-yl)-6-propoxy-3-pyridinyl]alanine]

Further lines, the compound ahead of its results:

Compound: CCCOc1ncc(I)cc1-c1nc2c(CC)nn(CC(=O)OC(C)(C)C)c2c(=O)[nH]1 [Example 64, tert-butyl [3-ethyl-5-(5-iodo-2-propoxy-3-pyridinyl)-7-oxo-6,7-dihydro-1H-pyrazolo[4,3-d]pyrimidin-1-yl]acetate]
- IC50 (cGMP PDE5): 7 nM

Compound: CCCOc1ncc(I)cc1-c1nc2c(CC)n(CC(=O)OC(C)(C)C)nc2c(=O)[nH]1 [Example 65, tert-butyl [3-ethyl-5-(5-iodo-2-propoxy-3-pyridinyl)-7-oxo-6,7-dihydro-2H-pyrazolo[4,3-d]-pyrimidin-2-yl]acetate]
- IC50 (cGMP PDE5): 4 nM

Compound: CCCOc1ncc(-c2nnn[nH]2)cc1-c1nc2c(CCC)nn(C)c2c(=O)[nH]1 [Example 71, 1-Methyl-5-[2-propoxy-5-(1H-tetrazol-5-yl)-3-pyridinyl]-3-propyl-1,6-dihydro-7H-pyrazolo[4,3-d]pyrimidin-7-one]
- IC50 (cGMP PDE5): 1 nM

Compound: CCCOc1ncc(C#CC(=O)OCC)cc1-c1nc2c(CCC)nn(C)c2c(=O)[nH]1 [Example 72]
- IC50 (cGMP PDE5): 0.3 nM

Compound: CCCOc1ncc(-c2cc(O)no2)cc1-c1nc2c(CCC)nn(C)c2c(=O)[nH]1 [Example 73, 5-[5-(3-Hydroxy-5-isoxazolyl)-2-propoxy-3-pyridinyl]-1-methyl-3-propyl-1,6-dihydro-7H-pyrazolo[4,3-d]pyrimidin-7-one]
- melting point: 239 to 241 °C
- IC50 (cGMP PDE5): 5 nM

Compound: CCCOc1ncc(N(S(C)(=O)=O)S(C)(=O)=O)cc1-c1nc2c(CCC)nn(C)c2c(=O)[nH]1 [Example 76, N-[5-(1-Methyl-7-oxo-3-propyl-6,7-dihydro-1H-pyrazolo[4,3-d]pyrimidin-5-yl)-6-propoxy-3-pyridinyl]-N-(methylsulfonyl)methanesulfonamide]
- IC50 (cGMP PDE5): 3 nM

Compound: CCCOc1ncc(NS(=O)(=O)CC(=O)O)cc1-c1nc2c(CCC)nn(C)c2c(=O)[nH]1 [Example 80, ({[5-(1-Methyl-7-oxo-3-propyl-6,7-dihydro-1H-pyrazolo[4,3-d]pyrimidin-5-yl)-6-propoxy-3-pyridinyl]amino}sulfonyl)acetic Acid]
- melting point: 267 to 270 °C
- IC50 (cGMP PDE5): 0.9 nM

Compound: CCCOc1ncc(N2CCN(S(=O)(=O)c3ccc(C)cc3)CC2)cc1-c1nc2c(CCC)nn(C)c2c(=O)[nH]1 [Example 81, 1-Methyl-5-(5-{4-[(4-methylphenyl)sulfonyl]-1-piperazinyl}-2-propoxy-3-pyridinyl)-3-propyl-1,6-dihydro-7H-pyrazolo[4,3-d]pyrimidin-7-one]
- IC50 (cGMP PDE5): 2 nM

Source: US6756373B1, “Pharmaceutically active compounds” (Pfizer Inc., priority 1999, dated 2004)
